# Data: paper PMC8348236, “Improving the Utility of a Dynorphin Peptide Analogue Using Mannosylated Glycoliposomes” (International Journal of Molecular Sciences, 2021)
# Experiments:
# [1] = female BALB/c mice, intranasal, 2.0 µg, 20 min; average ± SD of 5 mice
# [2] = target: T1, KOR (Mus musculus, UniProt P33534); experiment: In vivo striatal dopamine modulation after intranasal administration; conditions: female BALB/c mice, 2.0 µg dynantin, 20 min after administration, LC/MS, average ± SD of 5 mice
# Protocol: The ability of the glycoliposome delivery systems to improve both the delivery and activity of dynantin in the brain was studied in an in vivo mouse model. Female BALB/c mice (5 per group) were intranasally administered dynantin (2.0 µg dose) alone or entrapped in either DS1 or DS2. Mice were sacrificed 20 min later and blood (sera), lungs and brains were collected. […] Striatum tissue was immediately removed and neurotransmitter levels analyzed by LC/MS.
# Dynantin (2.0 µg total dose) was administered intranasally to female BALB/c mice (5 per group) either alone or entrapped with DS1 or DS2 (1:5 ratio of peptide: particles). The mice were euthanized 20 min after administration and the lung, brain, and blood (sera) were collected. Brains were immediately dissected on ice to obtain striatum tissue from which dopamine was extracted and its levels analyzed by LC/MS in the presence of 0.1% formic acid (A). […]
# For each mouse, blood was placed in sera tubes, which were spun at 10,000 rpm for 5 min and sera collected. […] The amount of dopamine extracted was analyzed via LC/MS (5 µL injections) and quantified using the dopamine: dopamine-D2 peak area ratio and a standard curve that was generated using increasing concentrations of dopamine in the presence of a set concentration of the dopamine-D2 internal standard. […]
# [3] = in vivo; conditions: female, BALB/c, mouse, inhaled or intranasal, 2 ug
# [4] = peptide without delivery system; cited from earlier work
# Source text: Initially, the ability of DS1 and DS2 to entrap and protect dynantin from proteolytic degradation in human plasma ex vivo was compared (Figure 3A).
# [5] = target: T1, KOR; experiment: In vitro dopamine modulation in fresh mouse striatum homogenates; conditions: mouse (C57BL/6) striatal homogenate, 90 min, 4 °C in the dark, LC/MS, average ± SD, n = 5, PBS control 0.54 ± 0.07
# Protocol: The gently homogenized tissue was treated with either PBS or dynantin at 1 and 10 µM concentrations for 90 min, after which dopamine levels were analyzed.
# Striatal tissue was collected from the brains of sacrificed mice (n = 15), gently homogenized and then treated with either PBS (60 µL, n = 5) or dynantin in PBS at a concentration of either 1 µM (60 µL, n = 5) or 10 µM (60 µL, n = 5) for 90 min at 4 °C in the dark. Dopamine was extracted and its levels analyzed by LC/MS in the presence of 0.1% formic acid.
# Analyses were performed using an Acquity Class H UPLC system with an Acquity QDa detector (Waters Limited, Mississauga, ON, Canada). Separations took place on an Acquity UPLC BEH C18 column, 1.7 µm, 100 mm × 2.1 mm(Waters Limited, Mississauga, ON, Canada), and were achieved using a binary gradient elution (Table 3) of water and acetonitrile (both with 0.1% formic acid, v/v) and a uniform flow rate of 0.4 mL/min. […]
# Male C57BL/6 mice (n = 15) were sacrificed by CO2 asphyxiation and cervical dislocation. […] The amount of dopamine extracted was analyzed via LC/MS (5 µL injections) and quantified using the dopamine: dopamine-D2 peak area ratio and a standard curve that was generated using increasing concentrations of dopamine in the presence of a set concentration of the dopamine-D2 internal standard. […]
# T1 sequence (P33534 whole entry): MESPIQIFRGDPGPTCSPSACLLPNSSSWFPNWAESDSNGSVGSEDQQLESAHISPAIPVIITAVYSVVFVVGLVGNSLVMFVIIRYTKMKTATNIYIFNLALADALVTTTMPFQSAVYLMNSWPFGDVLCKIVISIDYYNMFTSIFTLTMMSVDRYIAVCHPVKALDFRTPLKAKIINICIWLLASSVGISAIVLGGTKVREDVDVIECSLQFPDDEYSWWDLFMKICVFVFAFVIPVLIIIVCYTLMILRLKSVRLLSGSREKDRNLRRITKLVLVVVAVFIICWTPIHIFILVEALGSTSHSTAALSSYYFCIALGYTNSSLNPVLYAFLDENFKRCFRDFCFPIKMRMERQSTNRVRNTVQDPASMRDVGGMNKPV
smiles,measurement,setting,value
CC[C@H](C)[C@H](NC(=O)[C@H](CCCNC(=N)N)NC(=O)[C@H](CCCNC(=N)N)NC(=O)[C@H](CC(C)C)NC(=O)[C@H](Cc1ccccc1)NC(=O)CNC(=O)CNC(=O)[C@@H](C)Cc1c(C)cc(O)cc1C)C(=O)N[C@@H](CCCNC(=N)N)C(=O)N1CCC[C@H]1C(=O)N[C@@H](CCCCN)C(N)=O [Dynantin],"percentage of total dose recovered, Brain",[1],8.15 ± 3.06%
same,"percentage of total dose recovered, Lung",[1],4.93 ± 0.89%
same,"percentage of total dose recovered, Sera",[1],21.66 ± 3.99%
same,striatal dopamine level in vivo,[2],0.58 ± 0.05 ng/mg
same,tissue level at time at 20 min,[3]; brain (remaining tissue after removal of striatum),560 ± 200 ng/g
same,tissue level at time at 20 min,[3]; lung,560 ± 120 ng/g
same,level at 20 min,[3]; serum,1300 ± 160 ng/mL
same,time to rapid and complete degradation in human plasma,[4],≤ 12 h
same,"striatal dopamine level, 1 µM dynantin",[5]; 1 µM in PBS,0.78 ± 0.10 ng/mg
same,"striatal dopamine level, 10 µM dynantin",[5]; 10 µM in PBS,0.98 ± 0.09 ng/mg
